Assay results from patent US11739326B2, “RUNX1 inhibition for treatment of proliferative vitreoretinopathy and conditions associated with epithelial to mesenchymal transition” (The Schepens Eye Research Institute, Inc., priority 2017, dated 2023).
“Also recorded” adds a separate entry of the source.

Assays:
C-PVR cells [1] = assay: CyQuant cell proliferation assay in C-PVR cells; assay type: cell-based, human; details: for percent live cells: C-PVR, Ro5-3335 100, 50, 25 μM, methotrexate 400, 100, 10 μM, alone or in combination vs vehicle
ARPE-19 cells [2] = assay: CyQuant cell proliferation assay in ARPE-19 cells; assay type: cell-based; details: for percent live cells: Ro5-3335 100, 50, 25 μM, methotrexate 400, 100, 10 μM, alone or in combination vs vehicle
Method: (§1) ARPE 19 cells were cultured in 96 well plates for 8 hours, followed by treatment with RUNX1 inhibitor (Ro5-3335, Calbiochem) or Methotrexate (Sigma) in growth media or vehicle only for a period of 24 or 48 hours. The cells were washed and the CyQuant Direct nucleic acid stain was added and incubated at 37° C. in the incubator. Fluorescence read outs were measured at wavelengths as instructed in the protocol.

ARPE-19 cells [3] = assay: Growth factor-induced EMT in ARPE-19 cells (morphology, marker immunofluorescence); assay type: cell-based; details: TGFβ2, TNFα
Method: ARPE-19 cells were grown to confluence and maintained in 1% serum for 7-10 days (FIG. 22). Cells were treated with growth factors TGFβ2, TNFα and IL-6 (10 ng/ml each) for 3 days, with 150 μM RUNX1 inhibitor (Ro5-3335, Calbiochem) or without (e.g., vehicle). […] EMT was determined by morphological changes including cell shape.
Furthermore, treatment with RUNX1 small molecule inhibitor, Ro5-335, in ARPE-19 cells prevented EMT. This was assessed by the reduction in the epithelial marker, cytokeratin, and an increase in the mesenchymal markers such as fibronectin, and smooth muscle actin (FIGS. 23A and 23B). ARPE-19 cells were grown to confluence and maintained in 1% for 7-10 days. Cells were treated with TGFβ2, TNFα, and a combination of TGFβ2, TNFα and IL-6 (10 ng/ml each) for 3 days with or without 150 uM RUNX1 inhibitor (Ro5-3335, Calbiochem) or vehicle. Cells were washed and fixed with 4% paraformaldehyde for 10 minutes at room temperature. Cells were incubated with primary antibodies, mouse anti-cytokeratin (1:250; Abcam), or rabbit anti-fibronectin (1:500, Sigma) or smooth muscle actin (1:50; DAKO) overnight at 4° C. […]
ARPE-19 cells were grown to 60-70% confluence. […] EMT was determined by morphological changes (e.g., cell shape).

C-PVR cells [4] = assay: Ki67 staining of C-PVR cells (cell number and proliferative capacity); assay type: cell-based, human; details: Ro5-3335 150 μM, 48 hours, vs vehicle
Method: C-PVR (e.g., case 5) cells were transfected with the siRUNX1 or siScramble for 48 hours and washed and fixed with 4% paraformaldehyde for 10 minutes at room temperature. The cells were washed with PBS and blocked for an hour in (10% goat serum in PBS) incubated with rabbit anti-Ki67 antibody (1:50; Novus Biologicals) overnight at 4 degrees. Cells were incubated with secondary antibody goat anti-rabbit 594 (1:300; Life Technologies) for 2 hours along with DAPI, then were washed and imaged (FIG. 7A-7I; quantitation depicted in FIG. 8).
C-PVR cells (e.g., case 5) were cultured in 48 well plates for 24, followed by treatment with 150 μM RUNX1 inhibitor (Ro5-3335, Calbiochem), or vehicle only for a period of 48 hours. The cells were washed and fixed with 4% paraformaldehyde for 10 minutes at room temperature. The cells were washed with PBS and blocked for an hour in (10% goat serum in PBS) incubated with rabbit anti-Ki67 antibody (1:50; Novus Biologicals) overnight at 4 degrees. Cells were incubated with secondary antibody goat anti-rabbit 594 (1:300; Life Technologies) for 2 hours along with DAPI, washed, imaged and quantified using Image J (FIGS. 9A and 9B).
C-PVR cells (e.g., case 5) were cultured in 48 well plates for 24, followed by treatment with 150 μM RUNX1 inhibitor (Ro5-3335, Calbiochem), or vehicle only for a period of 48 hours. […]

human PVR membranes = assay: Human PVR membrane explant model in Matrigel; assay type: cell-based; details: Ro5-3335 150 μM, combination with methotrexate 400 μM; for growth of human PVR membranes in explant model: vs control (DMSO)
Method: (§2) PVR membranes were freshly obtained from patients and placed in growth factor-reduced Matrigel (BD Biosciences) seeded in 24 well plates. 30 μl of matrigel were used to coat the bottom of 24 well plates without touching the edges of the well. After seeding the PVR membrane, explant plates were incubated in a 37° C. cell incubator without medium for 10 minutes in order for the Matrigel to solidify. 500 μl of medium was added to each well and incubated at 37° C. with 5% CO2. The explants were treated with RUNX1 inhibitor (Ro5-3335). Phase contrast photos of individual explants were taken daily.
as §2, with “from patients,” for “from patients and”, “(BD Biosciences), and” for “(BD Biosciences)”, “matrigel was” for “matrigel were”, “After seeding,” for “After seeding”, “PVR membrane” for “PVR membrane,”, “inhibitor (Ro5-3335) or a combination of Ro5-3335 and methotrexate.” for “inhibitor (Ro5-3335).”

C-PVR cells [5] = assay: CyQuant cell proliferation assay in C-PVR cells; assay type: cell-based, human; details: for proliferation / percent live cells of C-PVR cells: 72 hours, vs vehicle
Method: as §1
A CyQuant Cell Proliferation Assay was performed 48 and 72 hours post-treatment, with lenalidomide at 40 nM, and 80 nM. […] C-PVR cells were cultured in 96 well plates for 8 hours, followed by treatment with lenalidomide (Sigma-Aldrich) in growth media or vehicle only for a period of 48 or 72 hours. The cells were washed, and CyQuant Direct and nucleic acid stain was added and incubated at 37° C. Fluorescence read outs were measured at wavelengths as instructed in the protocol.

SMILES | efficacy at inhibiting growth of C-PVR cells compared to methotrexate (C-PVR cells [1]; 24 or 48 hours) | percent live cells (C-PVR cells [1]; 24 hours) | percent live cells (C-PVR cells [1]; 48 hours) | efficacy at inhibiting growth of ARPE-19 cells compared to methotrexate (ARPE-19 cells [2]; 24 or 48 hours) | percent live cells (ARPE-19 cells [2]; ARPE-19, 24 hours) | percent live cells (ARPE-19 cells [2]; ARPE-19, 48 hours) | EMT determined by morphological changes including cell shape (ARPE-19 cells [3]; IL-6 (10 ng/ml each) 3 days, Ro5-3335 150 μM vs vehicle) | EMT assessed by cytokeratin, fibronectin and smooth muscle actin immunofluorescence (ARPE-19 cells [3]; combination with IL-6 (10 ng/mL each) 3 days, Ro5-3335 150 uM) | cell number and proliferative capacity of C-PVR cells (Ki67 staining) (C-PVR cells [4]) | cell number and proliferative capacity of C-PVR cells (Ki67 staining) (C-PVR cells [4]; listed as Ro5-335) | detachment of the branches from the primary tissue in human PVR explants (human PVR membranes) | branching, regression of branches and apoptosis in human PVR explants (human PVR membranes; vs DMSO) | growth of human PVR membranes in explant model (human PVR membranes) | growth of human PVR membranes in explant model (human PVR membranes; listed as Ro5-335) | proliferation of C-PVR cells (C-PVR cells [5]; 40 nM, 48 hours) | proliferation / percent live cells of C-PVR cells (C-PVR cells [5]; 40 nM) | proliferation of C-PVR cells (C-PVR cells [5]; 80 nM, 48 hours) | proliferation / percent live cells of C-PVR cells (C-PVR cells [5]; 80 nM) | proliferation of C-PVR cells (C-PVR cells [5]; 40 and 80 nM, 48 and 72 hours (summary statement)) | proliferation of C-PVR cells (C-PVR cells [5]; 40 and 80 nM, 48 and 72 hours (summary statement), listed as Lenlidomide)
O=C1CN=C(c2ccc[nH]2)c2cc(Cl)ccc2N1 [Ro5-3335] | more efficacious than treatment with methotrexate at inhibiting growth of C-PVR cells | significant reduction in percent live cells | significant reduction in percent live cells | more efficacious at inhibiting growth of ARPE-19 cells; also recorded: more efficacious than treatment with methotrexate | significant reduction in percent live cells | significant reduction in percent live cells | either no or reduced EMT | prevented EMT | significant reduction in the cell number and proliferative capacity | significant reduction in the cell number and proliferative capacity | Detachment of the branches from the primary tissue was also observed | apoptosis, less branching and a faster regression of the branches; also recorded: Less branching, a faster regression of the branches and apoptosis | significant reduction of human PVR; also recorded: no growth after 4 days; also recorded: reduced growth of human PVR membranes | reduced the growth of human PVR membranes; also recorded: now growth after four days | – | – | – | – | – | –
Nc1cccc2c1CN(C1CCC(=O)NC1=O)C2=O (stereo not drawn) [lenalidomide, 3-(7-amino-3-oxo-1H-isoindol-2-yl)piperidine-2,6-dione] | – | – | – | – | – | – | – | – | – | – | – | – | – | – | inhibited proliferation | significant reduction in percent live cells | inhibited proliferation | significant reduction in percent live cells | significantly reduced proliferation | inhibited proliferation
CN(Cc1cnc2nc(N)nc(N)c2n1)c1ccc(C(=O)N[C@@H](CCC(=O)O)C(=O)O)cc1 [methotrexate] | – | significant reduction in percent live cells | significant reduction in percent live cells | – | significant reduction in percent live cells | significant reduction in percent live cells | – | – | – | – | – | – | – | – | – | – | – | – | – | –
